Laboratory results as given in US12303845B2, “Method for crystallization of active pharmaceutical ingredients” (Nanoform Finland Oyj, priority 2023, dated 2025).

Test: Dissolution studies (Pion Rainbow, FaSSIF / SGF-FaSSIF)
Format: physicochemical
Conditions: composition of the disclosure vs bulk ezetimibe; powders resuspended in aq. 1% PVPVA; FaSSIF and SGF-FaSSIF
Protocol: The dissolution properties were measured with a Pion Rainbow R2D instrument (Pion Inc UK Ltd, Forest Row, UK). The suspensions were prepared at concentration of 5 mg/mL in 1% PVPVA suspension vehicle loaded at 40 μg/mL (ezetimibe) or 30 μg/ml (apalutamide). Fasted simulated intestinal fluid (FaSSIF) media pH 6.5 was used for dissolution studies of Ezetimibe. Dissolution studies for Apalutamide was done in biphasic mode starting in Simulated gastric media (SGF) (0.025 M HCl pH 1.6) for 15 min. Thereafter, the content of the SGF was converted to FaSSIF medium pH 6.5 by addition of 10 mL of FaSSIF concentrate media. The temperature was set to 37° C. and stirring rate to 150 rpm. API concentrations were continuously monitored with a fiber optical UV-Vis probes path length. UV-Vis spectra were collected in 30-sec intervals using the Pion Rainbow Dynamic with either 10 mm tips for Ezetimibe or 5 mm tips for Apalutamide. The API concentration was calculated based on a standard curve using 2nd derivative data transformation (stock solution 5 mg/mL in ethanol of respective API) at a range of 293-320 nm wavelength for both Ezetimibe and Apalutamide).

- dissolution versus bulk material: dissolves significantly faster
Compound: O=C1[C@H](CC[C@H](O)c2ccc(F)cc2)[C@@H](c2ccc(O)cc2)N1c1ccc(F)cc1 [Eze, ezetimibe]
